Results: patent publication US4277474A, “Treatment of allergic symptoms with propanone derivatives” (Nippon Zoki Pharmaceutical Co., Ltd., priority 1978, dated 1981)
Counter-ions that a name gives are not always drawn.

Columns and labels:
SRS-A = assay: Anti-SRS-A effect on guinea pig's ileum (Magnus method)
Method: The anti-SRS-A effect of the compounds according to the present invention on guinea pig's ileum was measured by Magnus method. […] One minute thereafter, the ileum contraction inhibiting rate (%) was measured with use of 1 ml of 80% ethanol solution of SRS-A (150 mg/ml).

[1] = tested on: Hartley-strain male guinea pig; assay: Experimental atopic asthma in passively sensitized guinea pigs; format: in vivo; conditions: 50 mg/kg peroral
Method: [Levine, B. B. et al., J. Immunol., 106, 29(1971)] was injected at a dosage of 0.25 ml/guinea pig into the hearts of groups of Hartley-strain male guinea pig (a group consisting of four), each weighing 250-300 g, to make them passively sensitive. […] The rate of breathing and the ratio of expiration time to inspiration time were calculated from the velocity of breathing. As an antigen to induce the reaction 200 μg/kg of benzylpenicilloyl bovine serum albumin [(BPO)23 -BSA] obtained by the method of Levine et al. [Levine et al.; J. Clin. Invest., 47, 556 (1968)] was injected through a cannula into the jugular vein.

Peritoneal cavity cells = assay: Inhibitory effect on histamine release from sensitized peritoneal cavity cells; format: cell-based, rat (Wistar-strain); parameters: Released histamine, fluorescence intensity / Residual histamine, fluorescence intensity / Total histamine, fluorescence intensity: unit not given here; conditions: for Net release rate: release not caused by antigen-antibody reaction deducted; for inhibition at 100 µM: 0.1 mM
Method: The inhibitory effect on histamine release of the compounds according to the present invention was investigated as follows. […] These cells were suspended in a phosphoric acid buffer solution (containing 0.1% of gelatin) and each 0.5 ml portion of this suspension was taken in a polyethylene tube. 1 ml each of solutions of various concentrations of test compound and 0.5 ml of 200 μg/ml of ovalbumin solution were added therein. They were incubated for 20 minutes at 37° C. to measure the histamine release rate. The amount of histamine was measured by a modified Shore method using fluorescence.

homo PCA reaction = assay: Inhibitory effect on homo PCA reaction in rats; format: in vivo; conditions: 200 mg/Kg peroral
[2] = Acute toxicity in mice (LD50, Litchfield-Wilcoxon); conditions: mouse, in vivo, ICR male mice
Method: Acute toxicity tests were carried out by intraperitoneal or peroral administration of the compound according to the present invention to groups of 10 ICR-strain male mice (weighing 20 g on the average), and each LD50 value was determined by Litchfield-Wilcoxon Method.

[3] = Rattus norvegicus, read-out: Inhibitory effect on histamine release

## Cc1ccc(C(=O)C(C)CN2CCCC2)cc1.Cl (centres unmarked) [Example 13, 2,4'-dimethyl-3-pyrrolidinopropiophenone hydrochloride]
SRS-A; 10^-4 g/ml
  ileum contraction inhibiting rate: 80.7 ± 6.98%
SRS-A; 10^-5 g/ml
  ileum contraction inhibiting rate: 2.7 ± 2.67%
SRS-A; 10^-6 g/ml
  ileum contraction inhibiting rate: 1.3 ± 1.33%

## CC(CN(C)C)C(=O)c1ccc2ccccc2c1 (stereo not drawn) [Example 3, 2-methyl-3-dimethylamino-β-propionaphthone hydrochloride]
SRS-A; 10^-4 g/ml
  ileum contraction inhibiting rate: 91.3 ± 3.84%
SRS-A; 10^-5 g/ml
  ileum contraction inhibiting rate: 47.0 ± 9.50%
SRS-A; 10^-6 g/ml
  ileum contraction inhibiting rate: 1.3 ± 0.88%

## Cc1ccc(C(=O)C(C)CN2CCOCC2)cc1.Cl (centres unmarked) [Example 12, 2,4'-dimethyl-3-morpholinopropiophenone hydrochloride]
SRS-A; 10^-4 g/ml
  ileum contraction inhibiting rate: 69.7 ± 12.13%
SRS-A; 10^-5 g/ml
  ileum contraction inhibiting rate: 20.7 ± 5.61%
SRS-A; 10^-6 g/ml
  ileum contraction inhibiting rate: 8.3 ± 6.89%

## COc1ccc(C(=O)C(C)CN2CCCCC2)cc1OC.Cl (centres unmarked) [Example 7, 3',4'-dimethoxy-2-methyl-3-piperidinopropiophenone hydrochloride]
SRS-A; 10^-4 g/ml
  ileum contraction inhibiting rate: 85.7 ± 0.67%
SRS-A; 10^-5 g/ml
  ileum contraction inhibiting rate: 8.3 ± 2.85%
SRS-A; 10^-6 g/ml
  ileum contraction inhibiting rate: 1.0 ± 1.00%

## Cc1ccc(C(=O)C(C)CN(C)C)cc1.Cl (centres unmarked) [Example 24, 2,4'-dimethyl-3-dimethylaminopropiophenone hydrochloride]
SRS-A; 10^-4 g/ml
  ileum contraction inhibiting rate: 57.3 ± 5.17%
SRS-A; 10^-5 g/ml
  ileum contraction inhibiting rate: 7.7 ± 3.67%
SRS-A; 10^-6 g/ml
  ileum contraction inhibiting rate: 4.3 ± 2.40%

## COc1ccc(C(=O)C(C)CN2CCCCC2)cc1.Cl (centres unmarked) [Example 25, 4'-methoxy-2-methyl-3-piperidinopropiophenone hydrochloride]
SRS-A; 10^-4 g/ml
  ileum contraction inhibiting rate: 80.3 ± 7.22%
SRS-A; 10^-5 g/ml
  ileum contraction inhibiting rate: 15.0 ± 14.50%
SRS-A; 10^-6 g/ml
  ileum contraction inhibiting rate: 6.7 ± 6.67%

## CCN(CC)CC(C)C(=O)c1ccc(C)cc1.Cl (centres unmarked) [Example 11, 2,4'-dimethyl-3-diethylaminopropiophenone hydrochloride]
SRS-A; 10^-4 g/ml
  ileum contraction inhibiting rate: 68.0 ± 13.05%
SRS-A; 10^-5 g/ml
  ileum contraction inhibiting rate: 0.3 ± 0.33%
SRS-A; 10^-6 g/ml
  ileum contraction inhibiting rate: 3.0 ± 3.00%

## Cc1ccc(C(=O)C(C)CN2CCN(CC(C)C)CC2)cc1.Cl.Cl (centres unmarked) [Example 1, 2,4'-dimethyl-3-(4-isobutylpiperazino)propiophenone dihydrochloride]
SRS-A; 10^-4 g/ml
  ileum contraction inhibiting rate: 64.7 ± 7.51%
SRS-A; 10^-5 g/ml
  ileum contraction inhibiting rate: 6.7 ± 3.33%
SRS-A; 10^-6 g/ml
  ileum contraction inhibiting rate: 0 ± 0%

## Cc1ccc(C(=O)C(C)CN2CCCCC2)cc1 (centres unmarked) [2,4'-dimethyl-3-piperidinopropiophenone, reference compound]
[1]
  inhibition on the variation from the normal values exhibited in the control group (in words): less inhibitory effect than the compounds according to the present invention
[1]; 1 min, 1 h before induction
  Expiration/inspiration: 90.2 ± 4.02%
  Rate of breathing: 120.6 ± 4.98%
  Volume of breathing: 123.4 ± 6.52%
[1]; 3 min, 1 h before induction
  Expiration/inspiration: 93.9 ± 5.09%
  Rate of breathing: 98.5 ± 6.55%
  Volume of breathing: 92.6 ± 8.29%
[1]; 6 min, 1 h before induction
  Expiration/inspiration: 94.3 ± 5.34%
  Rate of breathing: 89.5 ± 3.36%
  Volume of breathing: 96.7 ± 3.97%
[1]; 18 min, 1 h before induction
  Expiration/inspiration: 96.6 ± 2.39%
  Rate of breathing: 91.3 ± 1.57%
  Volume of breathing: 90.6 ± 1.52%
[1]; 30 min, 1 h before induction
  Expiration/inspiration: 94.8 ± 4.76%
  Rate of breathing: 93.3 ± 2.80%
  Volume of breathing: 91.4 ± 6.20%
[1]; 60 min, 1 h before induction
  Expiration/inspiration: 93.9 ± 3.98%
  Rate of breathing: 86.9 ± 6.14%
  Volume of breathing: 90.9 ± 4.47%
[1]; 90 min, 1 h before induction
  Expiration/inspiration: 104.3 ± 6.02%
  Rate of breathing: 84.6 ± 6.03%
  Volume of breathing: 91.0 ± 3.34%
[1]; 130 min, 1 h before induction
  Expiration/inspiration: 107.0 ± 3.44%
  Rate of breathing: 87.3 ± 4.44%
  Volume of breathing: 94.9 ± 4.71%
[1]; 180 min, 1 h before induction
  Expiration/inspiration: 109.3 ± 6.26%
  Rate of breathing: 87.5 ± 6.43%
  Volume of breathing: 93.8 ± 6.49%
[1]; before test
  Expiration/inspiration: 100.0 ± 0.00%
  Rate of breathing: 100.0 ± 0.00%
  Volume of breathing: 100.0 ± 0.00%
Peritoneal cavity cells; 0.01 mM
  Histamine release rate: 50.8%
  Net release rate: 36.9%
Peritoneal cavity cells; Rattus norvegicus, 0.01 mM
  inhibition at 10 µM: 0%
Homo PCA reaction
  inhibition of homo PCA reaction: about 40%

## CCc1ccc(C(=O)C(C)CN2CCCCC2)cc1CC (centres unmarked) [Example 34, 3',4'-diethyl-2-methyl-3-piperidinopropiophenone hydrochloride]
Peritoneal cavity cells; Rattus norvegicus, 0.05 mM, average ± S.E. of 3 or 4 experiments, read-out: Inhibitory effect on histamine release
  inhibition at 50 µM: 29.1 ± 7.5%

## COc1cc(C(=O)C(C)CN2CCCCC2)ccc1O (centres unmarked) [Example 18, 4'-hydroxy-3'-methoxy-2-methyl-3-piperidinopropiophenone hydrochloride]
Peritoneal cavity cells; Rattus norvegicus, 0.2 mM
  inhibition at 200 µM: 83.7%

## CC(CN1CCOCC1)C(=O)c1ccc2ccccc2c1 (stereo not drawn) [Example 4, 2-methyl-3-morpholino-β-propionaphthone hydrochloride]
Peritoneal cavity cells; 0.01 mM
  Histamine release rate: 44.2%
  Released histamine, fluorescence intensity: 212
  Residual histamine, fluorescence intensity: 268
  Total histamine, fluorescence intensity: 480
  Net release rate: 30.3%
Peritoneal cavity cells; Rattus norvegicus, 0.01 mM
  inhibition at 10 µM: 7.4%
[2]; ip, intraperitoneal
  LD50: 190 mg/kg
[2]; po, peroral
  LD50: 540 mg/kg
SRS-A; 10^-4 g/ml
  ileum contraction inhibiting rate: 96.7 ± 3.33%
SRS-A; 10^-5 g/ml
  ileum contraction inhibiting rate: 36.3 ± 14.19%
SRS-A; 10^-6 g/ml
  ileum contraction inhibiting rate: 13.0 ± 12.50%

## CC(CN1CCCC1)C(=O)c1ccc2ccccc2c1 (stereo not drawn) [Example 6, 2-methyl-3-pyrrolidino-β-propionaphthone hydrochloride]
Peritoneal cavity cells; [3]
  inhibition at 100 µM: 48%
SRS-A; 10^-4 g/ml
  ileum contraction inhibiting rate: 100.0 ± 0%
SRS-A; 10^-5 g/ml
  ileum contraction inhibiting rate: 63.0 ± 6.66%
SRS-A; 10^-6 g/ml
  ileum contraction inhibiting rate: 0.3 ± 0.33%

## CCN1CCN(CC(C)C(=O)c2ccc(C)cc2)CC1.Cl.Cl (centres unmarked) [Example 15, 2,4'-dimethyl-3-(4-ethylpiperazino)propiophenone dihydrochloride]
SRS-A; 10^-4 g/ml
  ileum contraction inhibiting rate: 69.7 ± 3.71%
SRS-A; 10^-5 g/ml
  ileum contraction inhibiting rate: 20.7 ± 6.12%
SRS-A; 10^-6 g/ml
  ileum contraction inhibiting rate: 0.3 ± 0.33%

## CC(CN1CCCCC1)C(=O)c1ccc2c(c1)CCCC2 (centres unmarked) [Example 9, 2-methyl-3-piperidino-5',6',7',8'-tetrahydro-2'-propionaphthone hydrochloride]
Peritoneal cavity cells; [3]
  inhibition at 100 µM: 33.7%

## CCOc1ccc(C(=O)C(C)CN2CCCCC2)cc1.Cl (centres unmarked) [Example 26, 4'-ethoxy-2-methyl-3-piperidinopropiophenone hydrochloride]
SRS-A; 10^-4 g/ml
  ileum contraction inhibiting rate: 86.7 ± 3.84%
SRS-A; 10^-5 g/ml
  ileum contraction inhibiting rate: 12.3 ± 6.69%
SRS-A; 10^-6 g/ml
  ileum contraction inhibiting rate: 6.7 ± 5.24%

## Cc1ccc(C(=O)C(C)CN2CCN(C)CC2)cc1.Cl.Cl (centres unmarked) [Example 14, 2,4'-dimethyl-3-(4-methylpiperazino)propiophenone dihydrochloride]
SRS-A; 10^-4 g/ml
  ileum contraction inhibiting rate: 58.0 ± 4.36%
SRS-A; 10^-5 g/ml
  ileum contraction inhibiting rate: 10.3 ± 7.88%
SRS-A; 10^-6 g/ml
  ileum contraction inhibiting rate: 10.3 ± 7.98%
